The record followed here is patent publication US4044043A, “Derivatives of 9-oxo-13-trans-prostenoic acid esters” (American Cyanamid Company, priority 1975, dated 1977).

In brackets after ≈: the same amount, converted by molar mass. Read-outs that look alike come from different tables or passages of the source.

The subject of one test is gastric acid secretion. Briefly: Inhibition of Gastric Acid Secretion (Pylorous-Ligated Rat), Shay rat procedure. Format: in vivo, rats (male, CFE strain). Particulars: read-out: % Inhibition of Control Gastric Acid Secretion; for inhibition in vivo at 100 mg/kg: 100 mg./kg. intraduodenal. The text has this: The novel compounds of the present invention are also effective inhibitors of gastric acid secretion and of ulcer development in experimental animals, and thus are potentially valuable as agents for the control of gastric acid secretion and of gastric erosion and as anti-ulcer agents. Gastric acid secretion inhibitory action is usually measured by the Shay rat procedure ^(1,2) with some modifications as follows. 6 1. Shay et al., Gastroenterology, 5, 43 (1945). 6 2. Shay et al., Gastroenterology, 26, 906 (1954).
The rats (male, CFE strain) were starved for 48 hours (water was given ad libitum) to permit evacuation of stomach contents. On the morning of the experiment, under ether anesthesia, the abdominal region was shaved and a midline incision (1-1 1/2 inch) was made with a scalpel. With the help of a closed curved hemostat the duodenum was picked up. Upon getting the duodenum into view fingers were used to pull the stomach through the opening, the stomach was then gently manipulated with fingers to rid stomach of air and residual matter which were pushed through the pylorus. Two 5-inch sutures were drawn under the pyloric-duodenal puncture. A ligature, at the juncture, was formed with one of the threads. The second ligature was also formed but not tightened.
The test compound or the vehicle, usually 1 ml./100 g. body weight, were injected into the duodenum as close as possible to the first ligature. After injection the second ligature was tightened below the injection site to minimize leakage. The stomach was placed back through the opening into the abdominal cavity, the area of incision was washed with saline and the incision was closed with autoclips. (Ocasionally instead of an intraduodenal injection, animals were dosed by the oral or subcutaneous route. In the latter case, dosing was done thirty to sixty minutes before the operation).
The abdominal cavity was exposed by cutting with scissors and the esophagus close to the stomach was clamped off with a hemostat, the stomach was removed by cutting above the hemostat (the esophagus was cut) and between the two sutures. Extraneous tissue was removed, the stomach washed with saline and blotted on gauze. A slit was carefully made in the stomach which was held over a funnel and the contents were collected in a centrifuge tube. The stomach was further cut along the outside edge and turned inside out. Two ml. of water were used to wash the stomach contents into the respective centrifuge tube. The combined stomach contents and wash were then centrifuged out for 10 minutes in the International Size 2 Centrifuge (setting at 30). The supernatant was collected, volume measured and recorded, 2 drops of phenolphthalein indicator (1% in 95% ethanol) were added and the solution was titrated with 0.02N NaOH (or with 0.04N NaOH when large volumes of stomach contents were encountered) to pH 8.4 (because of usual coloring of the stomach contents, phenolphthalein was only used to permit visual indication that the end point was near) and the amount of acid present was calculated.
Compounds inducing inhibition of gastric acid secretion of 20% or more were considered active. In a representative operation, and merely by way of illustration, the results obtained with this assay with typical compounds of the present invention are given in Table IIIA.

Test [1] deals with bronchospasms elicited by acetylcholine. The experiment in a line: Bronchodilator Activity (Konzett Assay) against acetylcholine. Format: in vivo, guinea pigs. Conditions: Cavia porcellus; three logarithmic cumulative intravenous doses. The method, then:
(§1) Bronchodilator activity was determined in guinea pigs against bronchospasms elicited by intravenous injections of 5-hydroxytryptamine, histamine or acetylcholine by the Konzett procedure. [See J. Lulling, P. Lievens, F. El Sayed and J. Prignot, Arzeneimittel-Forschung, 18, 995 (1968)]. In Table IIIC which follows bronchodilator activity for representative compounds of this invention against one or more of the three spasmogenic agents is expressed as an ED50 determined from the results obtained with three logarithmic cumulative intravenous doses.

Test [2] has as its system bronchospasms elicited by 5-hydroxytryptamine. The experiment in a line: Bronchodilator Activity (Konzett Assay) against 5-hydroxytryptamine. Format: in vivo, guinea pigs. Particulars: Cavia porcellus; three logarithmic cumulative intravenous doses. The method, then: as §1
Test [3] relates to dl-PGE1-induced contraction of gerbil colon. The experiment in a line: Inhibition of dl-PGE1-Induced Contraction of Gerbil Colon (prostaglandin antagonist action). Conditions: Meriones unguiculatus, 1 min. Format: cell-based, gerbils (Meriones unguiculatus). The method, then:
The compounds of this invention are also useful as antagonists of prostaglandin action and accordingly they are potentially useful as anti-inflammatory agents, and as agents for the treatment of periodontal diseases and diarrhea. Testing for prostaglandin antagonist action is carried out in the following manner. Sections of ascending colon, approximately 20 mm. long, from mature male gerbils (Meriones unguiculatus) weighing 70-80 g. were mounted in De Jalon's solution (154 mM NaCl; 5.95 mM NAHCO3; […], 5.64 mM KC and .27 mM CaCl2 in 20 ml. tissue baths) (L and K Glass Co., Lynnhurst, N.J.). The medium was continually gassed with a mixture of 95% 02 -5% CO2 and maintained at 37° C. The tissues were suspended via silk suture threads between a glass hook at the base and a model FT .03C force displacement transducer (Grass Instruments, Quincy, Massachusetts). Contractions were recorded on a Poly-Viso ® polygraph (Sanborn Co., Cambridge, Massachusetts). After mounting, tissues were allowed to stabilize 15-20 minutes during which time adjustments were made to establish and maintain a 0.5 g. resting tension on the muscle. Thereafter, test cycles of 3-5 minutes were begun and consisted of a 1 minute exposure to the potential antagonist, if called for, followed by a 1 minute exposure to the prostaglandin agonist, a 15-30 sec. washout and a recovery period of 2-2.5 minutes. […] During the washout period, the tissue was rinsed with a measured amount equalling 8 volumes of medium. Muscle relaxation was virtually complete by the end of the washout period. During preliminary tests it was noted that a final concentration of 200 ng./ml. of a racemic mixture of synthetic prostaglandin-E1 (dl-PGE1) produced maximal muscle contraction. Following stabilization, muscles were exposed 2 to 3 times to this concentration of dl-PGE1 until a consistent response was recorded. Once maximal responses were established, test cycles with potential antagonists were commenced and were followed alternately with prostaglandin-only test cycle. […] The contraction of the muscle induced by 200 ng./ml. dl-PGE1 following exposure to a given concentration of the potential antagonist was always compared to the response of the tissue to that level of dl PGE1 in the immediately preceding cycle. Using a series of potential antagonist concentrations, an approximate ID50 (concentration at which 50% inhibition was observed) was established. The compounds were also tested against a sub-maximal prostaglandin challenge (20 ng./ml. dl-PGE1) in which case activity is reported in terms of a 50% inhibition of maximum response.

Test [4] concerns bronchospasms elicited by histamine. Briefly: Bronchodilator Activity (Konzett Assay) against histamine. Format: in vivo, guinea pigs. Conditions: Cavia porcellus; three logarithmic cumulative intravenous doses. The method, then:
as §1

In a further test the test system is diastolic blood pressure. Briefly: Prostaglandin-like hypotensive activity in anesthetized rats (minimal dose for about 10 mm. decrease in diastolic blood pressure). Format: in vivo, Male Wistar strain rats. Particulars: Rattus norvegicus; intravenous; decrease of about 10 mm. in diastolic blood pressure. The method, then: This procedure is a modification of the technique described by Pike et al., Prostaglandins, Nobel Symposium 2, Stockholm, June, 1966; p, 165.
Male Wistar strain rats (Royal Hart Farms) averaging approximately 250 grams in weight were fastened to rat boards in a supine position by means of canvas vests and limb ties. The femoral area was infiltrated subcutaneously with lidocaine and the iliac artery and vein exposed and cannulated. Arterial blood pressure (systolic/diastolic) was recorded using a Statham P23 Db pressure transducer-Offner dynograph system. To obtain a stable blood pressure, the animals were anesthetized before use with pentobarbital, 30 mg./kg. of body weight intravenously, and also were given hexamethonium bitartrate, 2 mg./kg. of body weight intravenously. The test compounds were prepared by ultrasonic dispersion in a saline-Tween 80 ® vehicle. A constant intravenous dose volume of 0.5 ml. was administered and test doses ranged from 0.1 to 10.0 mg./kg. of body weight. Increasing or decreasing doses were selected depending on the dose response obtained. In Table I below are set forth the minimal doses required to produce a decrease of about 10 mm. in diastolic blood pressure for typical compounds of the present invention.

The test system of test [5] is Mycobacterium smegmatis ATCC 606. The experiment in a line: agar-dilution streak-plate antimicrobial assay. Conditions: Mycolicibacterium smegmatis, ATCC606, read-out: Minimal inhibitory conc. (6). Format: cell-based. The method, then: (§2) The novel compounds of the present invention are also useful as antimicrobial agents. […] In this assay, the compounds to be tested are made up to contain 2.5 mg. of test compound per milliliter of solution. Observing sterile techniques, two-fold serial dilution are made of each test solution. One milliliter of each of the original solutions and of each of the serial dilutions is then added to 9 ml. of warm sterile nutrient agar capable of supporting growth of the bacterial test cultures. A second set of agar dilutions is prepared identical to the first except that the nutrient agar is designed to support the growth of the fungal test cultures. […] The test bacteria and yeast-like fungi are prepared for use by growing in broth overnight. The spores of the filamentous fungi are harvested from mature agar slant cultures and are suspended in sterile physiological saline solution. A loopful of each of the resulting live suspensions is then, still employing sterile techniques, streaked upon the surfaces of each of the agar plates and the resulting streaked plates are then incubated. After an appropriate period of time, each of the streaks on each of the plates is inspected visually and the extent, if any, of bacterial or fungal growth is noted. The minimal inhibitory concentration (expressed in micrograms per milliliter) is defined as the concentration of test compound causing complete inhibition of growth of any particular organism. In a representative operation, and merely by way of illustration, the minimal inhibitory concentration of typical compounds of the present invention against a variety of test organisms as determined in the above-described assay are set forth in Tables II and III below: […]

The subject of test [6] is Trichophyton tonsurans NIH 662. The experiment in a line: agar-dilution streak-plate antimicrobial assay. Format: cell-based. Particulars: NIH662, read-out: Minimal inhibitory conc. (3). The method, then:
as §2

Setting [7] is: 200 ng./ml. dl-PGE1, read-out: ID50 vs. 200 ng. of PGE1/ml.
Setting [8] is: sub-maximal challenge, 20 ng./ml. dl-PGE1, 50% inhibition of maximum response, read-out: ID50 vs. 20 ng. of PGE1/ml.

The ED50 is the midpoint of the dose-response relation. A lower ED50 goes with greater potency. For `CCCCCC/C=C/[C@@H]1CCC(=O)[C@H]1CCCCC(C)(C)CC(=O)O` (relative stereo) [3,3-dimethyl-9-oxo-13-trans-prostenoic acid], in the test on gastric acid secretion (200 mg./kg. intraduodenal), the inhibition in vivo at 200 mg/kg was 72%. The ED50 in test [1] was more than 10 mg/kg; in test [2], 12 mg/kg; in test [4] it was 5.1 mg/kg. Besides, the IC50 in test [3] (setting [7]) is 3 to 5 µg/mL (≈ 8.56 to 14.3 µM); in test [3] (setting [8]), 1 µg/mL (≈ 2.85 µM).

As for `CCCCCC/C=C/[C@@H]1CCC(=O)[C@H]1CCCCOCC(=O)O` (relative stereo) [9-oxo-3-oxa-13-trans-prostenoic acid], the inhibition in vivo at 100 mg/kg in the test with gastric acid secretion stood at 90%. Also, the ED50 in test [1] stood at 5.24 mg/kg; in test [2], 0.895 mg/kg; in test [4], 0.67 mg/kg. In addition, the IC50 in test [3] (setting [7]) was determined as 20 µg/mL (≈ 61.6 µM).

Take `CCCCCC/C=C/[C@@H]1CCC(=O)[C@H]1C/C=C\CCCC(=O)O` (relative stereo) [9-oxo-5-cis,13-trans-prostadienoic acid, 9-oxo-5-cis-13-trans-prostadienoic acid]: the values for the ED50 in test [1], in test [2] and in test [4] were 4.36 mg/kg, 1.5 mg/kg and 1.42 mg/kg, respectively. Further, the IC50 amounted to 9 µg/mL (≈ 28.1 µM) in test [3] (setting [7]) and 0.9 µg/mL (≈ 2.81 µM) in test [3] (setting [8]).

For the compound `CCCCCC/C=C/[C@@H]1CCC(=NO)[C@H]1CCCCCCC(=O)O` (relative stereo) [9-oxo-13-trans-prostenoic acid 9-oxime, 9-Oxo-13-trans-prostenoic acid oxime], the inhibition in vivo at 100 mg/kg in the test on gastric acid secretion was 39%. The figures for the ED50 in test [1], in test [2] and in test [4] were 12.5 mg/kg, 30 mg/kg and 23.1 mg/kg, respectively. Besides, in test [3] (setting [8]), the IC50 is 1 to 2 µg/mL (≈ 2.96 to 5.93 µM).

Consider `CCCC/C=C/[C@H]1CCC(=O)[C@@H]1CCCCCCC(=O)O` (relative stereo) [9-oxo-19,20-dinor-13-trans-prostenoic acid], for which, in the test with gastric acid secretion (50 mg./kg. intraduodenal), the inhibition in vivo at 50 mg/kg came to 37%. Besides, the inhibition in vivo at 100 mg/kg with gastric acid secretion was determined as 77%. In addition, the ED50 in test [1] came out at 5.28 mg/kg; in test [2], 2.16 mg/kg; in test [4], 0.715 mg/kg. For the same compound, in test [3] (setting [8]), the IC50 fell in the range of 1 to 2 µg/mL (≈ 3.4 to 6.79 µM).

What is called minimal effective dose is the lowest level tested that produced the effect sought. Compound `CCCCCCCCCC/C=C/[C@H]1CCC(=O)[C@@H]1CCCCCCC(=O)OCC` (relative stereo) [ethyl 20-butyl-9-oxo-13-trans-prostenoate] returned a minimal effective dose in the test with diastolic blood pressure of 10 mg/kg. Besides, the MIC in test [5] and in test [6] was 250 µg/mL (≈ 615 µM) in each case.

In the case of `CCCCCC/C=C/[C@H]1CCC(=O)[C@@H]1CCCCCC(CC)C(=O)O` (stereo partly drawn) [9-oxo-2-ethyl-13-trans-prostenoic acid, 2-ethyl-9-oxo-13-trans-prostenoic acid], the ED50 was more than 10 mg/kg in test [1], 2.91 mg/kg in test [2] and 7.75 mg/kg in test [4]. For the same compound, the IC50 in test [3] (setting [7]) is 15 µg/mL (≈ 42.8 µM); in test [3] (setting [8]), 4 to 5 µg/mL (≈ 11.4 to 14.3 µM).

Turning to `CCCC=CC1CCC(=O)C1CCCCCC(F)C(=O)O` (stereo not drawn) [9-oxo-2-fluoro-18,19,20-trinor-13-trans-prostenoic acid], the ED50 in test [1] is more than 10 mg/kg; in test [2] it was 8.36 mg/kg; in test [4], 6.35 mg/kg. Moreover, the IC50 in test [3] (setting [7]) is 25 to 30 µg/mL (≈ 83.8 to 101 µM).
